PMC10794144, “A novel antibiotic class targeting the lipopolysaccharide transporter” (Nature, 2024)
Values after ≈ are worked out from the molar mass of the structure shown.

Key:
A. baumannii = assay: microbe, parasite or virus in culture; conditions: for RO7223280 MIC 80%: read at 80%; for RO7223280 MIC 100%: read at 100%
Method in brief: (§1)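 MIC was taken as the lowest concentration without visible growth, or past which OD600 no longer fell. Testing followed CLSI M07 and M100 broth microdilution, using 0.5 McFarland-derived inocula in CAMHB (LB for A. baylyi isolates).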

[1] = test system: K. pneumoniae ATCC 700603; assay: microbe, parasite or virus in culture; conditions: for RO7223280 MIC 100%: K. pneumoniae ATCC 700603, read at 100%
Method in brief: as §1

[2] = A. baumannii ATCC 17978, Study LGC308175
[3] = A. baumannii ATCC 19606, Study LGC296813
[4] = A. baumannii ATCC 19606, Study LGC299544
[5] = A. baumannii ATCC 19606, Study LGC308175
[6] = A. baumannii ROB08701, Study LGC296813
[7] = A. baumannii ROB08701, Study LGC299544
[8] = A. baumannii ROB08701, Study LGC308175
[9] = A. baumannii ROB08702, Study LGC296813
[10] = A. baumannii ROB08702, Study LGC299544
[11] = A. baumannii ROB08702, Study LGC308175
[12] = A. baumannii ROB08703, Study LGC296813
[13] = A. baumannii ROB08703, Study LGC299544
[14] = A. baumannii ROB08703, Study LGC308175
[15] = A. baumannii ROB08704, Study LGC296813
[16] = A. baumannii ROB08704, Study LGC299544
[17] = A. baumannii ROB08704, Study LGC308175
[18] = A. baumannii ROB08705, Study LGC296813
[19] = A. baumannii ROB08705, Study LGC299544
[20] = A. baumannii ROB08705, Study LGC308175
[21] = A. baumannii ROB08706, Study LGC296813
[22] = A. baumannii ROB08706, Study LGC299544
[23] = A. baumannii ROB08706, Study LGC308175
[24] = A. baumannii ROB08707, Study LGC296813
[25] = A. baumannii ROB08707, Study LGC299544
[26] = A. baumannii ROB08707, Study LGC308175
[27] = A. baumannii ROB08708, Study LGC296813
[28] = A. baumannii ROB08708, Study LGC299544
[29] = A. baumannii ROB08708, Study LGC308175
[30] = A. baumannii ROB08709, Study LGC296813
[31] = A. baumannii ROB08709, Study LGC299544
[32] = A. baumannii ROB08709, Study LGC308175
[33] = A. baumannii ROB08710, Study LGC296813
[34] = A. baumannii ROB08710, Study LGC299544
[35] = A. baumannii ROB08710, Study LGC308175

Question: What does the source list for `CN1C(=O)[C@H](CCCCN)NC(=O)[C@H](CCCN)NCc2cccnc2Sc2cccc(-c3ccc(C(=O)O)cc3)c2CNC(=O)[C@@H]1Cc1c[nH]c2ccccc12` [zosurabalpin]?
Answer: MIC range (A. baumannii; 10 MDR isolates, CAMHB, MCPs read at 80% growth inhibition): 0.12 to 1 µg/mL; RO7223280 MIC 80% (A. baumannii; [2]): ≤0.06 µg/mL; RO7223280 MIC 100% (A. baumannii; [2]): 0.12 µg/mL; RO7223280 MIC 80% (A. baumannii; [3]): 0.25 µg/mL; RO7223280 MIC 100% (A. baumannii; [3]): 0.25 µg/mL; RO7223280 MIC 80% (A. baumannii; [4]): 0.25 µg/mL; RO7223280 MIC 100% (A. baumannii; [4]): 0.25 µg/mL; RO7223280 MIC 80% (A. baumannii; [5]): 0.25 µg/mL; RO7223280 MIC 100% (A. baumannii; [5]): 0.25 µg/mL; RO7223280 MIC 80% (A. baumannii; [6]): 0.25 µg/mL; RO7223280 MIC 100% (A. baumannii; [6]): 0.25 µg/mL; RO7223280 MIC 80% (A. baumannii; [7]): 0.12 µg/mL; RO7223280 MIC 100% (A. baumannii; [7]): 0.5 µg/mL; RO7223280 MIC 80% (A. baumannii; [8]): 0.25 µg/mL; RO7223280 MIC 100% (A. baumannii; [8]): 0.25 µg/mL; RO7223280 MIC 80% (A. baumannii; [9]): 0.25 µg/mL; RO7223280 MIC 100% (A. baumannii; [9]): 0.25 µg/mL; RO7223280 MIC 80% (A. baumannii; [10]): 0.25 µg/mL; RO7223280 MIC 100% (A. baumannii; [10]): >64 µg/mL; RO7223280 MIC 80% (A. baumannii; [11]): 0.25 µg/mL; RO7223280 MIC 100% (A. baumannii; [11]): >64 µg/mL; RO7223280 MIC 80% (A. baumannii; [12]): 0.25 µg/mL; RO7223280 MIC 100% (A. baumannii; [12]): 0.5 µg/mL; RO7223280 MIC 80% (A. baumannii; [13]): 0.25 µg/mL; RO7223280 MIC 100% (A. baumannii; [13]): 0.5 µg/mL; RO7223280 MIC 80% (A. baumannii; [14]): 0.5 µg/mL; RO7223280 MIC 100% (A. baumannii; [14]): 0.5 µg/mL; RO7223280 MIC 80% (A. baumannii; [15]): 0.25 µg/mL; RO7223280 MIC 100% (A. baumannii; [15]): 0.5 µg/mL; RO7223280 MIC 80% (A. baumannii; [16]): 0.25 µg/mL; RO7223280 MIC 100% (A. baumannii; [16]): 1 µg/mL; RO7223280 MIC 80% (A. baumannii; [17]): 0.5 µg/mL; RO7223280 MIC 100% (A. baumannii; [17]): 0.5 µg/mL; RO7223280 MIC 80% (A. baumannii; [18]): 0.25 µg/mL; RO7223280 MIC 100% (A. baumannii; [18]): 0.25 µg/mL; RO7223280 MIC 80% (A. baumannii; [19]): 0.12 µg/mL; RO7223280 MIC 100% (A. baumannii; [19]): 0.12 µg/mL; RO7223280 MIC 80% (A. baumannii; [20]): ≤0.06 µg/mL; RO7223280 MIC 100% (A. baumannii; [20]): 0.12 µg/mL; RO7223280 MIC 80% (A. baumannii; [21]): 1 µg/mL; RO7223280 MIC 100% (A. baumannii; [21]): 1 µg/mL; RO7223280 MIC 80% (A. baumannii; [22]): 1 µg/mL; RO7223280 MIC 100% (A. baumannii; [22]): >64 µg/mL; RO7223280 MIC 80% (A. baumannii; [23]): 2 µg/mL; RO7223280 MIC 100% (A. baumannii; [23]): >64 µg/mL; RO7223280 MIC 80% (A. baumannii; [24]): 0.25 µg/mL; RO7223280 MIC 100% (A. baumannii; [24]): 0.25 µg/mL; RO7223280 MIC 80% (A. baumannii; [25]): 0.12 µg/mL; RO7223280 MIC 100% (A. baumannii; [25]): 0.12 µg/mL; RO7223280 MIC 80% (A. baumannii; [26]): 0.12 µg/mL; RO7223280 MIC 100% (A. baumannii; [26]): 0.12 µg/mL; RO7223280 MIC 80% (A. baumannii; [27]): 0.25 µg/mL; RO7223280 MIC 100% (A. baumannii; [27]): 0.25 µg/mL; RO7223280 MIC 80% (A. baumannii; [28]): 0.12 µg/mL; RO7223280 MIC 100% (A. baumannii; [28]): >64 µg/mL; RO7223280 MIC 80% (A. baumannii; [29]): 0.12 µg/mL; RO7223280 MIC 100% (A. baumannii; [29]): >64 µg/mL; RO7223280 MIC 80% (A. baumannii; [30]): 0.25 µg/mL; RO7223280 MIC 100% (A. baumannii; [30]): 0.25 µg/mL; RO7223280 MIC 80% (A. baumannii; [31]): 0.25 µg/mL; RO7223280 MIC 100% (A. baumannii; [31]): >64 µg/mL; RO7223280 MIC 80% (A. baumannii; [32]): 0.25 µg/mL; RO7223280 MIC 100% (A. baumannii; [32]): >64 µg/mL; RO7223280 MIC 80% (A. baumannii; [33]): 0.25 µg/mL; RO7223280 MIC 100% (A. baumannii; [33]): >64 µg/mL; RO7223280 MIC 80% (A. baumannii; [34]): 0.25 µg/mL; RO7223280 MIC 100% (A. baumannii; [34]): >64 µg/mL; RO7223280 MIC 80% (A. baumannii; [35]): 0.25 µg/mL; RO7223280 MIC 100% (A. baumannii; [35]): >64 µg/mL; MIC90 (A. baumannii; Acinetobacter baumannii, 10 MDR isolates, CAMHB, MCPs read at 80% growth inhibition): 0.25 µg/mL (≈ 0.316 µM); MIC (A. baumannii; Acinetobacter baumannii, ACC00445, CAMHB, MCPs read at 80% inhibition): 0.12 µg/mL (≈ 0.152 µM); MIC (A. baumannii; Acinetobacter baumannii, ACC00535, CAMHB, MCPs read at 80% inhibition): 0.12 µg/mL (≈ 0.152 µM); MIC (A. baumannii; Acinetobacter baumannii, ACC01073, CAMHB, MCPs read at 80% inhibition): 1 µg/mL (≈ 1.26 µM); MIC (A. baumannii; Acinetobacter baumannii, ACC01077, CAMHB, MCPs read at 80% inhibition): 0.12 µg/mL (≈ 0.152 µM); MIC (A. baumannii; Acinetobacter baumannii, ACC01085 / AR0307, CAMHB, MCPs read at 80% inhibition): 0.5 µg/mL (≈ 0.632 µM); MIC (A. baumannii; Acinetobacter baumannii, ATCC17978, ATCC 17978, CAMHB, MCPs read at 80% inhibition): ≤ 0.06 µg/mL; MIC (A. baumannii; Acinetobacter baumannii, ATCC17978, ATCC 17978, CAMHB, one replicate, MCPs read at 80% growth inhibition): ≤ 0.06 µg/mL; MIC (A. baumannii; Acinetobacter baumannii, ATCC19606, ATCC 19606, CAMHB, MCPs read at 80% growth inhibition): 0.25 µg/mL (≈ 0.316 µM); MIC (A. baumannii; Acinetobacter baumannii, ATCC19606, ATCC 19606, CAMHB, MCPs read at 80% inhibition): 0.12 µg/mL (≈ 0.152 µM); MIC (A. baumannii; Acinetobacter baumannii, ATCCBAA747, ATCC BAA-747, CAMHB, MCPs read at 80% inhibition): ≤ 0.06 µg/mL; MIC (A. baumannii; Acinetobacter baumannii, ROB08701, CAMHB, MCPs read at 80% inhibition): 0.25 µg/mL (≈ 0.316 µM); MIC (A. baumannii; Acinetobacter baumannii, ROB08702, CAMHB, MCPs read at 80% inhibition): 0.12 µg/mL (≈ 0.152 µM); MIC (A. baumannii; Acinetobacter baumannii, ROB08703, CAMHB, MCPs read at 80% inhibition): 0.5 µg/mL (≈ 0.632 µM); MIC (A. baumannii; Acinetobacter baumannii, ROB08704, CAMHB, MCPs read at 80% inhibition): 0.25 µg/mL (≈ 0.316 µM); MIC (A. baumannii; Acinetobacter baumannii, ROB08705, CAMHB, MCPs read at 80% inhibition): 0.25 µg/mL (≈ 0.316 µM); MIC (A. baumannii; Acinetobacter baumannii, ROB08706, CAMHB, MCPs read at 80% inhibition): 0.5 µg/mL (≈ 0.632 µM); MIC (A. baumannii; Acinetobacter baumannii, ROB08707, CAMHB, MCPs read at 80% inhibition): ≤ 0.06 µg/mL; MIC (A. baumannii; Acinetobacter baumannii, ROB08708, CAMHB, MCPs read at 80% inhibition): 0.12 µg/mL (≈ 0.152 µM); MIC (A. baumannii; Acinetobacter baumannii, ROB08709, CAMHB, MCPs read at 80% inhibition): ≤ 0.06 µg/mL; MIC (A. baumannii; Acinetobacter baumannii, ROB08710, CAMHB, MCPs read at 80% inhibition): 0.12 µg/mL (≈ 0.152 µM); RO7223280 MIC 100% ([1]; Study LGC296813): >64 µg/mL; RO7223280 MIC 100% ([1]; Study LGC299544): >64 µg/mL; RO7223280 MIC 100% ([1]; Study LGC308175): >64 µg/mL; MIC ([1]; Klebsiella pneumoniae, ATCC700603): > 64 µg/mL
